pIC50: −log10 of the molar value.
test system: DOHH2 cells; experiment: Cell proliferation assay (MTS) in DOHH2 cells, mechanism-based assay for BTK inhibition; conditions: Homo sapiens, DOHH-2, 120 h incubation, 5000 cells/well
From the text: Cell Proliferation Assays
MTS testing kit was purchased from Promega. The DMEM, Fetal bovine serum and Penicillin-Streptomycin were purchased from Gibco. Dimethyl sulfoxide (DMSO) was purchased from Sigma.
To investigate whether a compound is able to inhibit the activity of BTK in cells, a mechanism-based assay using DOHH2 (DSMZ catalog#: ACC47) and Mino (ATCC® Number CRL-3000™) cells was developed. In this assay, inhibition of BTK was detected by the inhibition of DOHH2 and Mino cell proliferations. DOHH2 or Mino cells were cultured in culture flasks to 40-80% confluence in RPMI-1640 plus 10% fetal bovine serum. C ells were collected and plated onto 96-well plates at desired cell density (DOHH2: 5000 cells/well; Mino: 10000 cells/well). Plates were incubated overnight at 37° C., with 5% CO2 to adhere. Compounds were added to the plates, and the final compound concentrations were 10000, 3333, 1111, […], 41, 14, 4.6 and 1.5 nM. Plates were placed at 37° C., with 5% CO2 for 120 h (DOHH2) or 72 h (Mino). 20 μl MTS/100 μl medium mixture solution were added to each well and the plates were incubated for exactly 2 hours. The reaction was stopped by adding 25 μl 10% SDS per well.
Select compounds prepared as described above were assayed according to the biological procedures described herein.

SMILES	pIC50
C=CC(=O)N1CCC[C@@H](c2nn(-c3ccc(Oc4ccccc4F)cc3)c3c(N)n[nH]c(=O)c23)C1 [Example 53, (R)-3-(1-acryloylpiperidin-3-yl)-7-amino-1-(4-(2-fluorophenoxy)phenyl)-1,5-dihydro-4H-pyrazolo[3,4-d]pyridazin-4-one]	6.71
C=CC(=O)N1CCC[C@@H](c2nn(-c3ccc(Oc4cccc(F)c4F)cc3)c3c(N)n[nH]c(=O)c23)C1 [Example 56, (R)-3-(1-acryloylpiperidin-3-yl)-7-amino-1-(4-(2,3-difluorophenoxy)phenyl)-1,5-dihydro-4H-pyrazolo[3,4-d]pyridazin-4-one]	7.38
C=CC(=O)N1CCC[C@@H](c2nn(-c3ccc(Oc4c(F)cccc4F)cc3)c3c(N)n[nH]c(=O)c23)C1 [Example 57, (R)-3-(1-acryloylpiperidin-3-yl)-7-amino-1-(4-(2,6-difluorophenoxy)phenyl)-1,5-dihydro-4H-pyrazolo[3,4-d]pyridazin-4-one]	7.12
C=CC(=O)N1CCC[C@@H](c2nn(-c3ccc(Oc4cc(F)cc(F)c4)cc3)c3c(N)n[nH]c(=O)c23)C1 [Example 58, (R)-3-(1-acryloylpiperidin-3-yl)-7-amino-1-(4-(3,5-difluorophenoxy)phenyl)-1,5-dihydro-4H-pyrazolo[3,4-d]pyridazin-4-one]	6.65
C=CC(=O)N1CCC[C@H](c2nn(-c3ccc(Oc4ccccc4F)cc3)c3c(N)n[nH]c(=O)c23)C1 [Example 59, (S)-3-(1-acryloylpiperidin-3-yl)-7-amino-1-(4-(2-fluorophenoxy)phenyl)-1,5-dihydro-4H-pyrazolo [3,4-d]pyridazin-4-one]	6.61
C=CC(=O)N1CCC[C@H](c2nn(-c3ccc(Oc4cccc(F)c4F)cc3)c3c(N)n[nH]c(=O)c23)C1 [Example 62, (S)-3-(1-acryloylpiperidin-3-yl)-7-amino-1-(4-(2,3-difluorophenoxy)phenyl)-1,5-dihydro-4H-pyrazolo[3,4-d]pyridazin-4-one]	6.83
C=CC(=O)N1CCC[C@H](c2nn(-c3ccc(Oc4c(F)cccc4F)cc3)c3c(N)n[nH]c(=O)c23)C1 [Example 63, (S)-3-(1-acryloylpiperidin-3-yl)-7-amino-1-(4-(2,6-difluorophenoxy)phenyl)-1,5-dihydro-4H-pyrazolo[3,4-d]pyridazin-4-one]	6.72
CC#CC(=O)N1CC[C@@H](c2nn(-c3ccc(Oc4ccccc4)cc3)c3c(N)n[nH]c(=O)c23)C1 [Example 65, (R)-7-amino-3-(1-(but-2-ynoyl)pyrrolidin-3-yl)-1-(4-phenoxyphenyl)-1,5-dihydro-4H-pyrazolo[3,4-d]pyridazin-4-one]	6.30
CC#CC(=O)N1CC[C@H](c2nn(-c3ccc(Oc4ccccc4)cc3)c3c(N)n[nH]c(=O)c23)C1 [Example 66, (S)-7-amino-3-(1-(but-2-ynoyl)pyrrolidin-3-yl)-1-(4-phenoxyphenyl)-1,5-dihydro-4H-pyrazolo [3,4-d]pyridazin-4-one]	6.62
CC#CC(=O)N1CC[C@@H](c2cn(-c3ccc(Oc4ccccc4)cc3)c3c(N)n[nH]c(=O)c23)C1 [Example 67, (S)-7-amino-3-(1-(but-2-ynoyl)pyrrolidin-3-yl)-1-(4-phenoxyphenyl)-1,5-dihydro-4H-pyrrolo [2,3-d]pyridazin-4-one]	6.69
CC#CC(=O)N1CC[C@H](c2cn(-c3ccc(Oc4ccccc4)cc3)c3c(N)n[nH]c(=O)c23)C1 [Example 68, (R)-7-amino-3-(1-(but-2-ynoyl)pyrrolidin-3-yl)-1-(4-phenoxyphenyl)-1,5-dihydro-4H-pyrrolo [2,3-d]pyridazin-4-one]	6.84
CC#CC(=O)N1CCC[C@@H](c2nn(-c3ccc(Oc4ccccc4)cc3)c3c(N)n[nH]c(=O)c23)C1 [Example 69, (R)-7-amino-3-(1-(but-2-ynoyl)piperidin-3-yl)-1-(4-phenoxyphenyl)-1,5-dihydro-4H-pyrazolo [3,4-d]pyridazin-4-one]	6.06
CC#CC(=O)N1CCC[C@@H](c2cn(-c3ccc(Oc4ccccc4)cc3)c3c(N)n[nH]c(=O)c23)C1 [Example 71, (S)-7-amino-3-(1-(but-2-ynoyl)piperidin-3-yl)-1-(4-phenoxyphenyl)-1,5-dihydro-4H-pyrrolo[2,3-d]pyridazin-4-one]	6.64
CC#CC(=O)N1CCC[C@H](c2cn(-c3ccc(Oc4ccccc4)cc3)c3c(N)n[nH]c(=O)c23)C1 [Example 72, (R)-7-amino-3-(1-(but-2-ynoyl)piperidin-3-yl)-1-(4-phenoxyphenyl)-1,5-dihydro-4H-pyrrolo[2,3-d]pyridazin-4-one]	6.59
CC#CC(=O)N1CC[C@@H](c2nn(-c3ccc(Oc4ccccc4F)cc3)c3c(N)n[nH]c(=O)c23)C1 [Example 73, (R)-7-amino-3-(1-(but-2-ynoyl)pyrrolidin-3-yl)-1-(4-(2-fluorophenoxy)phenyl)-1,5-dihydro-4H-pyrazolo[3,4-d]pyridazin-4-one]	6.36
CC#CC(=O)N1CC[C@H](c2nn(-c3ccc(Oc4ccccc4F)cc3)c3c(N)n[nH]c(=O)c23)C1 [Example 74, (S)-7-amino-3-(1-(but-2-ynoyl)pyrrolidin-3-yl)-1-(4-(2-fluorophenoxy)phenyl)-1,5-dihydro-4H-pyrazolo[3,4-d]pyridazin-4-one]	6.41
CC#CC(=O)N1CC[C@@H](c2cn(-c3ccc(Oc4ccccc4F)cc3)c3c(N)n[nH]c(=O)c23)C1 [Example 75, (S)-7-amino-3-(1-(but-2-ynoyl)pyrrolidin-3-yl)-1-(4-(2-fluorophenoxy)phenyl)-1,5-dihydro-4H-pyrrolo[2,3-d]pyridazin-4-one]	6.42
CC#CC(=O)N1CC[C@H](c2cn(-c3ccc(Oc4ccccc4F)cc3)c3c(N)n[nH]c(=O)c23)C1 [Example 76, (R)-7-amino-3-(1-(but-2-ynoyl)pyrrolidin-3-yl)-1-(4-(2-fluorophenoxy)phenyl)-1,5-dihydro-4H-pyrrolo[2,3-d]pyridazin-4-one]	6.91
CC#CC(=O)N1CCC[C@@H](c2nn(-c3ccc(Oc4ccccc4F)cc3)c3c(N)n[nH]c(=O)c23)C1 [Example 77, (R)-7-amino-3-(1-(but-2-ynoyl)piperidin-3-yl)-1-(4-(2-fluorophenoxy)phenyl)-1,5-dihydro-4H-pyrazolo[3,4-d]pyridazin-4-one]	6.18
CC#CC(=O)N1CCC[C@@H](c2cn(-c3ccc(Oc4ccccc4F)cc3)c3c(N)n[nH]c(=O)c23)C1 [Example 79, (S)-7-amino-3-(1-(but-2-ynoyl)piperidin-3-yl)-1-(4-(2-fluorophenoxy)phenyl)-1,5-dihydro-4H-pyrrolo[2,3-d]pyridazin-4-one]	6.79
CC#CC(=O)N1CCC[C@H](c2cn(-c3ccc(Oc4ccccc4F)cc3)c3c(N)n[nH]c(=O)c23)C1 [Example 80, (R)-7-amino-3-(1-(but-2-ynoyl)piperidin-3-yl)-1-(4-(2-fluorophenoxy)phenyl)-1,5-dihydro-4H-pyrrolo[2,3-d]pyridazin-4-one]	6.35
CC#CC(=O)N1CC[C@H](c2nn(-c3ccc(Oc4c(F)cccc4F)cc3)c3c(N)n[nH]c(=O)c23)C1 [Example 82, (S)-7-amino-3-(1-(but-2-ynoyl)pyrrolidin-3-yl)-1-(4-(2,6-difluorophenoxy)phenyl)-1,5-dihydro-4H-pyrazolo[3,4-d]pyridazin-4-one]	6.16
